The assay has as its system SU-DHL-4 cells. Description: Inhibitory effect on cell viability in SU-DHL-4 cell line (Test Example 1). Format: cell-based, human. The following applies: SU-DHL-4 cells, 72 hours, Cell Counting Kit-8, concentration showing 90% inhibition of cell viability, read-out: SU-DHL-4 Cell Viability Inhibition Rate IC90. Here is the method:
SU-DHL-4 cells (Code No. ACC 495, Deutsche Sammlung von Mikroorganismen and Zellkulturen GmbH; DSMZ) were cultured at 37° C. using a carbon dioxide incubator (95% air, 5% CO2) in RPMI1640 medium (Code No. 11875-093, Thermo Fisher Scientific) in which inactivated fetal bovine serum (FBS: Code No. 10099-148, Thermo Fisher Scientific) in an amount to give a final concentration of 10 vol % and penicillin/streptomycin solution (PS: […] The cells were passaged twice a week at a volume of 20-40 mL so as to maintain a cell concentration of 1×10^6 cells/mL or less. […] After seeding, the cells were precultured at 37° C. in a carbon dioxide gas incubator for 18 to 25 hours. […] At this time, the final concentration of DMSO was adjusted to be 0.1 vol %. After adding the test compound, the cells were cultured at 37° C. in a carbon dioxide gas incubator for 72 hours. Next, 0.020 mL of Cell Counting Kit-8 (Code No. CK04, DOJINDO) solution diluted 2-fold or 4-fold with phosphate buffered saline (PBS) was added to each well. Color reaction was carried out in a carbon dioxide gas incubator at 37° C. for 2 to 3 hours, and the absorbance at a wavelength of 450 nm was measured using SpectraMax 340PC (Molecular Devices). […] Absorbance of a well containing test compound • B: Absorbance of a well without addition of cells • C: Absorbance of a well without addition of test compound

SMILES strings stand for the structures. Where a name gives a salt, the structure may show the parent alone. Read-outs that look alike come from different tables or passages of the source.

This is an account of results in patent US20220378923A1, “BET DEGRADER” (KYOWA KIRIN CO., LTD., priority 2019, published 2022).

As usually defined, the IC90 is the point of the concentration-response curve where the effect stands at 90%. On to `CCC(=O)N1c2ccccc2[C@H](Nc2ccc(NC(=O)c3coc(N[C@H]4CC[C@H](N[C@@H]5C[C@H](C)N(C(=O)CC)c6ccccc65)CC4)n3)cc2)C[C@@H]1C` [Compound 7g, 2-(((1R,4R)-4-(((2S,4R)-2-Methyl-1-propionyl-1,2,3,4-tetrahydroquinolin-4-yl)amino)cyclohexyl)amino)-N-(4-(((2S,4R)-2-methyl-1-propionyl-1,2,3,4-tetrahydroquinolin-4-yl)amino)phenyl)oxazole-4-carboxamide], for which the IC90 came to 7.56 nM.

As to `CCC(=O)N1c2ccccc2[C@H](Nc2ccc(C(=O)NC3CN(C(=O)c4ccc(C5=N[C@@H](CC(=O)OCCN(C)C)c6nnc(C)n6-c6sc(C)c(C)c65)cc4)C3)cc2)C[C@@H]1C` [Compound 13b, 2-(Dimethylamino)ethyl 2-((S)-2,3,9-trimethyl-4-(4-(3-(4-(((2S,4R)-2-methyl-1-propionyl-1,2,3,4-tetrahydroquinolin-4-yl)amino)benzamide)azetidine-1-carbonyl)phenyl)-6H-thieno[3,2-f][1,2,4]triazolo[4,3-a][1,4]diazepin-6-yl)acetate], the IC90 amounted to 3.5 nM.

On to `CCC(=O)N1c2ccccc2[C@H](Nc2ccc(-c3cnc4n3CCN(C(=O)C3CCC(N[C@@H]5C[C@H](C)N(C(=O)CC)c6ccccc65)CC3)C4)cc2)C[C@@H]1C` (relative stereo) [Compound 8h, 1-((2S*,4R*)-2-methyl-4-(((1R,4R)-4-(3-(4-(((2S,4R)-2-methyl-1-propionyl-1,2,3,4-tetrahydroquinolin-4-yl)amino)phenyl)-5,6,7,8-tetrahydroimidazo[1,2-a]pyrazine-7-carbonyl)cyclohexyl)amino)-3,4-dihydroquinolin-1(2H)-yl)propan-1-one], for which the 90% effect concentration (IC90) amounted to 1.14 nM.

For `CCC(=O)N1c2ccccc2[C@H](Nc2ccc(-c3cnn(CCNC(=O)C4CCC(N[C@@H]5C[C@H](C)N(C(=O)CC)c6ccccc65)CC4)c3)cc2)C[C@@H]1C` (relative stereo) [Compound 8o, (1R,4r)-4-(((2S*,4R*)-2-Methyl-1-propionyl-1,2,3,4-tetrahydroquinolin-4-yl)amino)-N-(2-(4-(4-(((2S,4R)-2-methyl-1-propionyl-1,2,3,4-tetrahydroquinolin-4-yl)amino)phenyl)-1H-pyrazol-1-yl)ethyl)cyclohexane-1-carboxamide], the concentration for an effect of 90% (IC90) is 0.49 nM.

Take `CCC(=O)N1c2ccccc2[C@H](Nc2ccc(-c3cnn(CC(=O)NC4CCC(N[C@@H]5C[C@H](C)N(C(=O)CC)c6ccccc65)CC4)c3)cc2)C[C@@H]1C` (relative stereo) [Compound 9b, N-((1R,4R)-4-(((2S*,4R*)-2-Methyl-1-propionyl-1,2,3,4-tetrahydroquinolin-4-yl)amino)cyclohexyl)-2-(4-(4-(((2S,4R)-2-methyl-1-propionyl-1,2,3,4-tetrahydroquinolin-4-yl)amino)phenyl)-1H-pyrazol-1-yl)acetamide]: the IC90 was determined as 3.18 nM.

In the case of `CCC(=O)N1c2ccccc2[C@H](Nc2ccc(NC(=O)CNC(=S)OC3CCC(N[C@@H]4C[C@H](C)N(C(=O)CC)c5ccccc54)CC3)cc2)C[C@@H]1C` (relative stereo) [Compound 7d, 0-((1R,4R)-4-(((2S*,4R*)-2-Methyl-1-propionyl-1,2,3,4-tetrahydroquinolin-4-yl)amino)cyclohexyl)(2-((4-(((2S,4R)-2-methyl-1-propionyl-1,2,3,4-tetrahydroquinolin-4-yl)amino)phenyl)amino)-2-oxoethyl)carbamothioate], the IC90 is 25.9 nM.

For the compound `CCC(=O)N1c2ccccc2[C@H](Nc2ccc(NC(=O)CCCC(=O)NC34CCC(NCc5cc(O)cc(-c6c(C)noc6C)c5)(CC3)CC4)cc2)C[C@@H]1C` [Compound 17c, N^1-(4-((3-(3,5-Dimethylisoxazol-4-yl)-5-hydroxybenzyl)amino)bicyclo[2.2.2]octan-1-yl)-N5-(4-(((2S,4R)-2-methyl-1-propionyl-1,2,3,4-tetrahydroquinolin-4-yl)amino)phenyl)glutaramide], under “Homo sapiens”, the 90% effect concentration (IC90) worked out at 2.05 nM.

Turning to `CCC(=O)N1c2ccccc2[C@H](Nc2ccc(-c3cn4c(n3)CN(C(=O)C3CCC(N[C@@H]5C[C@H](C)N(C(=O)CC)c6ccccc65)CC3)CC4)cc2)C[C@@H]1C` (relative stereo) [Compound 7b, 1-((2S*,4R*)-2-Methyl-4-(((1R,4r)-4-(2-(4-(((2S,4R)-2-methyl-1-propionyl-1,2,3,4-tetrahydroquinolin-4-yl)amino)phenyl)-5,6,7,8-tetrahydroimidazo[1,2-a]pyrazine-7-carbonyl)cyclohexyl)amino)-3,4-dihydroquinolin-1(2H)-yl)propan-1-one], the IC90 amounted to 1.51 nM.

In the case of `CCC(=O)N1c2ccccc2[C@H](Nc2ccc(NC(=O)C3CN(C(=O)c4ccc(C5CCN(c6ccc7nnc(Cl)n7n6)CC5)cc4)C3)cc2)C[C@@H]1C` [Compound 17p, 1-(4-(1-(3-Chloro-[1,2,4]triazolo[4,3-b]pyridazin-6-yl)piperidin-4-yl)benzoyl)-N-(4-(((2S,4R)-2-methyl-1-propionyl-1,2,3,4-tetrahydroquinolin-4-yl)amino)phenyl)azetidine-3-carboxamide], for the setting “Homo sapiens”, the IC90 was 0.35 nM.

Take `CCC(=O)N1c2ccccc2[C@H](Nc2ccc(-c3ccc(CNC(=O)C4CCC(N[C@@H]5C[C@H](C)N(C(=O)CC)c6ccccc65)CC4)s3)cc2)C[C@@H]1C` (relative stereo) [Compound 8e, (1R,4R)-4-(((2S*,4R*)-2-Methyl-1-propionyl-1,2,3,4-tetrahydroquinolin-4-yl)amino)-N-((5-(4-(((2S,4R)-2-methyl-1-propionyl-1,2,3,4-tetrahydroquinolin-4-yl)amino)phenyl)thiophen-2-yl)methyl)cyclohexane-1-carboxamide]: the IC90 is 0.2 nM.

For the compound `CCC(=O)N1c2ccccc2[C@H](Nc2ccc(C(=O)NCCCNC(=O)c3ccc(Cn4c(C(=O)OC)cc5c4CCCC5=O)cc3)cc2)C[C@@H]1C` [Compound 15g, Methyl 1-(4-((3-(4-(((2S,4R)-2-methyl-1-propionyl-1,2,3,4-tetrahydroquinolin-4-yl)amino)benzamide)propyl)carbamoyl)benzyl)-4-oxo-4,5,6,7-tetrahydro-1H-indole-2-carboxylate], the IC90 was 5.03 nM.

Regarding `CCC(=O)N1c2ccccc2[C@H](Nc2ccc(-n3cc(CNC(=O)c4cccc(Oc5ccccc5-c5cn(C)c(=O)cc5OC)c4)nn3)cc2)C[C@@H]1C` [Compound 17d, 3-(2-(4-Methoxy-1-methyl-6-oxo-1,6-dihydropyridin-3-yl)phenoxy)-N-((1-(4-(((2S,4R)-2-methyl-1-propionyl-1,2,3,4-tetrahydroquinolin-4-yl)amino)phenyl)-1H-1,2,3-triazol-4-yl)methyl)benzamide], under “Homo sapiens”, the IC90 is 0.13 nM.

For `CCC(=O)N1c2ccccc2[C@H](NCC23CC(C(=O)N4CC(C(=O)Nc5ccc(N[C@@H]6C[C@H](C)N(C(=O)CC)c7ccccc76)cc5)C4)(C2)C3)C[C@@H]1C` (relative stereo) [Compound 17n, 1-(3-((((2S,4R)-2-Methyl-1-propionyl-1,2,3,4-tetrahydroquinolin-4-yl)amino)methyl)bicyclo[1.1.1]pentane-1-carbonyl)-N-(4-(((2S*,4R*)-2-methyl-1-propionyl-1,2,3,4-tetrahydroquinolin-4-yl)amino)phenyl)azetidine-3-carboxamide], the IC90 (Homo sapiens) was determined as 5.14 nM.

With `CCC(=O)N1c2ccccc2[C@H](Nc2ccc(-n3cc(CCNC(=O)C4CCN(Cc5cc(O)cc(-c6c(C)noc6C)c5)CC4)nn3)cc2)C[C@@H]1C` [Compound 17l, 1-(3-(3,5-Dimethylisoxazol-4-yl)-5-hydroxybenzyl)-N-(2-(1-(4-(((2S,4R)-2-methyl-1-propionyl-1,2,3,4-tetrahydroquinolin-4-yl)amino)phenyl)-1H-1,2,3-triazol-4-yl)ethyl)piperidine-4-carboxamide formate], the IC90 (Homo sapiens) turned out to be 1.89 nM.

For `CCC(=O)N1c2ccccc2[C@H](Nc2ccc(NC(=O)CNC(=O)C3CCC(N[C@@H]4C[C@H](C)N(C(=O)CC)c5ccccc54)CC3)cc2)C[C@@H]1C` (relative stereo) [Compound 7k, (1R,4R)-4-(((2S*,4R*)-2-Methyl-1-propionyl-1,2,3,4-tetrahydroquinolin-4-yl)amino)-N-(2-((4-(((2S,4R)-2-methyl-1-propionyl-1,2,3,4-tetrahydroquinolin-4-yl)amino)phenyl)amino)-2-oxoethyl)cyclohexane-1-carboxamide], the 90% effect concentration (IC90) stood at 0.62 nM.

As for `CCC(=O)N1c2ccccc2[C@H](Nc2ccc(NC(=O)CCCC(=O)NC3CCCN(Cc4ccc(NS(=O)(=O)CC)cc4-c4cn(C)c(=O)cc4OC)C3)cc2)C[C@@H]1C` (stereo partly drawn) [Compound 16f, N^1-(1-(4-(Ethylsulfonamide)-2-(4-methoxy-1-methyl-6-oxo-1,6-dihydropyridin-3-yl)benzyl)piperidin-3-yl)-N5-(4-(((2S,4R)-2-methyl-1-propionyl-1,2,3,4-tetrahydroquinolin-4-yl)amino)phenyl)glutaramide], the IC90 is 24.6 nM.
